The test has as its system Acinetobacter baumannii ATCC17978. The experiment in a line: Antimicrobial susceptibility testing: 90% growth inhibitory concentration (IC90) determination, Iso-Sensitest broth. The test is classed as cell-based. Summed up: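 A. baumannii ATCC17978 grown in Iso-Sensitest broth across 10 compound concentrations at 35±2 °C.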
Setting [1] is: Acinetobacter baumannii, ATCC17978, 16 h, read-out: ATCC17978 IC90, 90% growth inhibitory concentration, Acinetobacter baumannii ATCC17978, Iso-Sensitest broth, OD 600 nm over 16 h.
The mark [2] stands for this setting: 90% growth inhibitory concentration, Acinetobacter baumannii ATCC17978, Iso-Sensitest broth, OD 600 nm over 16 h, read-out: ATCC17978 IC90.

The values that follow come from US20230011869A1 (Hoffmann-La Roche Inc., priority 2018, published 2023).

Where a name gives a salt, the structure may show the parent alone. Read-outs that look alike come from different tables or passages of the source.

Consider `COc1ccc(-c2cnc3c(Nc4ccc(C(=O)N5CCC(C(=O)N6CCNC(C(=O)O)C6)CC5)c(C)c4)nccn23)cc1F` (stereo not drawn) [Example 264, 4-[1-[4-[[3-(3-fluoro-4-methoxyphenyl)imidazo[1,2-a]pyrazin-8-yl]amino]-2-methylbenzoyl]piperidine-4-carbonyl]piperazine-2-carboxylic acid; formic acid], for which, under setting [1], the IC90 is 1100 nM.
Regarding `COc1ccc(-c2cnc3c(Nc4ccc(C(=O)N5CCC(C(=O)NCCS(=O)(=O)O)CC5)c(C)c4)nccn23)cc1F` [Example 303, 2-[[1-[4-[[3-(3-fluoro-4-methoxyphenyl)imidazo[1,2-a]pyrazin-8-yl]amino]-2-methylbenzoyl]piperidine-4-carbonyl]amino]ethanesulfo-nic acid], the IC90 under setting [2] worked out at 3500 nM.
With `Cc1cc(Nc2nccn3c(-c4ccc(OC(F)F)cc4)cnc23)ccc1C(=O)N1CCC2(CC1)CNCCO2` [Example 17, (4-((3-(4-(difluoromethoxy)phenyl)imidazo[1,2-a]pyrazin-8-yl)amino)-2-methylphenyl)(1-oxa-4,9-diazaspiro[5.5]undecan-9-yl)methanone], under setting [2], the IC90 came to 1300 nM.
On to `CCN(CC)C(=O)N1CCN(C(=O)c2ccc(Nc3nccn4c(-c5ccc(OC(F)F)cc5)cnc34)cc2C)CC1` [Example 369, 4-[4-[[3-[4-(difluoromethoxy)phenyl]imi-dazo[1,2-a]pyrazin-8-yl]amino]-2-methylbenzoyl]-N,N-diethylpiperazine-1-carboxamide], for which the IC90 under setting [1] is 890 nM.
As to `Cc1cc(Nc2nccn3c(-c4ccc(OC(F)F)cc4)cnc23)ccc1C(=O)N1CCN(C(=O)Nc2ccncc2)CC1` [Example 245, 4-[4-[[3-[4-(difluoromethoxy)phenyl]imidazo[1,2-a]pyrazin-8-yl]amino]-2-methyl-benzoyl]-N-(4-pyridyl)piperazine-1-carboxamide], under setting [2], the IC90 stood at 120 nM.
With `Cc1cc(Nc2nccn3c(-c4ccc(OC(F)F)cc4)cnc23)ccc1C(=O)N1CCN(C(=O)C2C3CCC2CNC3)CC1` (stereo not drawn) [Example 488, [4-(3-azabicyclo[3.2.1]octane-8-carbonyl)piperazin-1-yl]-[4-[[3-[4-(difluoromethoxy)phenyl]imi-dazo[1,2-a]pyrazin-8-yl]amino]-2-methylphenyl]methanone; hy-drochloride], the IC90 under setting [1] amounted to 240 nM.
Consider `CN[C@@H](C)C(=O)N1CCN(C(=O)c2ccc(Nc3nccn4c(-c5ccc(OC(F)F)cc5)cnc34)cc2C)CC1` [Example 311, (2S)-1-[4-[4-[[3-[4-(difluoromethoxy)phenyl]imi-dazo[1,2-a]pyrazin-8-yl]amino]-2-methylbenzoyl]piperazin-1-yl]-2-(methylamino)propan-1-one; hydrochloride], for which the IC90 under setting [1] worked out at 190 nM.
As for `COc1ccc(-c2cnc3c(Nc4ccc(C(=O)N5CCC(C(=O)NCC6CNC6)CC5)c(C)c4)nccn23)cc1F` [Example 60, N-(azetidin-3-ylmethyl)-1-(4-((3-(3-fluoro-4-methoxyphenyl)imidazo[1,2-a]pyrazin-8-yl)amino)-2-methylbenzoyl)piperidine-4-carboxamide 2,2,2-trifluoroacetate], where the note is “read-out: ATCC17978 IC90, 90% growth inhibitory concentration, Acinetobacter baumannii ATCC17978, Iso-Sensitest broth, OD 600 nm over 16 h, 2,2,2-trifluoroacetate”, the IC90 was 210 nM.
As for `COc1ccc(-c2cnc3c(Nc4ccc(C(=O)N5CCN(C(=O)C(CC(=O)O)NC(=O)[C@@H](N)CCCCN)CC5)c(C)c4)nccn23)c(F)c1F` (mixture of isomers) [Example 534, 4-[4-[4-[[3-(2,3-difluoro-4-methoxyphenyl)imidazo[1,2-a]pyrazin-8-yl]amino]-2-methylbenzoyl]piperazin-1-yl]-4-oxo-3-[[rac-(2R)-2,6-diaminohexanoyl]amino]bu-tanoic acid; hydrochloride], the IC90 under setting [2] came to 2300 nM.
As to `COc1ccc(-c2cnc3c(Nc4ccc(C(=O)N5CCC(C(=O)N6CCNC(CO)C6)CC5)c(C)c4)nccn23)cc1F` (stereo not drawn) [Example 53, (1-(4-((3-(3-fluoro-4-methoxyphenyl)imidazo[1,2-a]pyrazin-8-yl)amino)-2-methylbenzoyl)piperidin-4-yl)(3-(hydroxymethyl)piperazin-1-yl)methanone 2,2,2-trifluoroacetate], the IC90 under setting [1] worked out at 270 nM.
As for `Cc1cc(Nc2nccn3c(-c4ccc(OC(F)F)cc4)cnc23)ccc1C(=O)N1CCC(C(=O)N(C)C[C@H](O)[C@@H](O)[C@@H](O)[C@H](O)CO)CC1` [Example 268, 1-[4-[[3-[4-(difluoromethoxy)phenyl]imi-dazo[1,2-a]pyrazin-8-yl]amino]-2-methylbenzoyl]-N-methyl-N-[(2S,3R,4S,5R)-2,3,4,5,6-pentahydroxyhexyl]piperidine-4-carboxamide], the IC90 under setting [1] came out at 1500 nM.
In the case of `Cc1cc(Nc2nccn3c(-c4ccc(OC(F)F)cc4)cnc23)ccc1C(=O)N1CCN(C(=O)[C@@H](N)Cc2cnc[nH]2)CC1` [Example 437, (2S)-2-amino-1-[4-[4-[[3-[4-(difluoromethoxy)phenyl]imi-dazo[1,2-a]pyrazin-8-yl]amino]-2-methylbenzoyl]piperazin-1-yl]-3-(1H-imidazol-5-yl)propan-1-one; hydrochloride], the IC90 under setting [1] turned out to be 770 nM.
For the compound `COc1ccc(-c2cnc3c(Nc4ccc(C(=O)N5CCN(Cc6cnc[nH]6)CC5)c(C)c4)nccn23)cc1F` [Example 256, [4-[[3-(3-fluoro-4-methoxyphenyl)imidazo[1,2-a]pyrazin-8-yl]amino]-2-methylphenyl]-[4-(1H-imidazol-5-ylmethyl)piperazin-1-yl]methanone], under setting [2], the IC90 is 760 nM.
`COc1ccc(-c2cnc3c(Nc4ccc(C(=O)N5CCN(C(=O)N6CCO[C@@H](CN)C6)CC5)c(C)c4)nccn23)c(F)c1F` [Example 145, [4-[(2S)-2-(aminomethyl)morpholine-4-carbonyl]piperazin-1-yl]-[4-[[3-(2,3-difluoro-4-methoxy-phenyl)imidazo[1,2-a]pyrazin-8-yl]amino]-2-methyl-phenyl]methanone formate]: the IC90 under setting [2] amounted to 170 nM.
Regarding `Cc1cc(Nc2nccn3c(-c4ccc(OC(C)(C)C#N)c(F)c4F)cnc23)ccc1C(=O)N1CCC(CN)CC1` [Example 105, 2-[4-[8-[4-[4-(aminomethyl)piperidine-1-carbonyl]-3-methyl-anilino]imidazo[1,2-a]pyrazin-3-yl]-2,3-difluoro-phenoxy]-2-methyl-propanenitrile; formic acid], the IC90 under setting [2] came out at 3600 nM.
`CN(C)CCN1CCN(C(=O)c2ccc(Nc3nccn4c(-c5ccc(OCC#N)c(F)c5Cl)cnc34)cc2Cl)CC1` [Example 25, 2-[3-chloro-4-[8-[3-chloro-4-[4-[2-(dimethylamino)ethyl]piperazine-1-carbonyl]anilino]imidazo[1,2-a]pyrazin-3-yl]-2-fluoro-phenoxy]acetontrile]: the IC90 under setting [2] is 140 nM.
Take `COc1ccc(-c2cnc3c(Nc4ccc(C(=O)N5CCC(c6nncn6C)CC5)c(C)c4)nccn23)cc1F` [Example 357, [4-[[3-(3-fluoro-4-methoxyphenyl)imidazo[1,2-a]pyrazin-8-yl]amino]-2-methylphenyl]-[4-(4-methyl-1,2,4-triazol-3-yl)piperidin-1-yl]methanone]: under setting [2], the IC90 was 330 nM.
In the case of `Cc1cc(Nc2nccn3c(-c4ccc(OC(F)F)cc4)cnc23)ccc1C(=O)N1CCC(C(N)=O)CC1` [Example 4, 1-(4-((3-(4-(difluoromethoxy)phenyl)imidazo[1,2-a]pyrazin-8-yl)amino)-2-methylbenzoyl)piperidine-4-carboxamide], the IC90 under setting [2] is 120 nM.
Take `COc1ccc(-c2cnc3c(Nc4ccc(C(=O)N5CCN(C(=O)[C@@H]6CCNC[C@H]6O)CC5)c(C)c4)nccn23)c(F)c1F` [Example 193, [4-[[3-(2,3-difluoro-4-methoxy-phenyl)imidazo[1,2-a]pyrazin-8-yl]amino]-2-methyl-phenyl]-[4-[(3S,4R)-3-hydroxypiperidine-4-carbonyl]piperazin-1-yl]methanone hydrochloride]: under setting [2], the IC90 was determined as 290 nM.
As for `COc1ccc(-c2cnc3c(Nc4ccc(C(=O)N5CCN(C(=O)N6CCN[C@H](C(=O)O)C6)CC5)c(C)c4)nccn23)c(F)c1F` [Example 515, (2S)-4-[4-[4-[[3-(2,3-difluoro-4-methoxyphenyl)imidazo[1,2-a]pyrazin-8-yl]amino]-2-methylbenzoyl]piperazine-1-carbonyl]piperazine-2-carboxylic acid; formic acid], the IC90 under setting [1] stood at 650 nM.
The same measure, in the same setting: as for `COc1ccc(-c2cnc3c(Nc4ccc(C(=O)N5CCC(C(=O)NCCCN)CC5)c(C)c4)nccn23)cc1F` [Example 52, N-(3-aminopropyl)-1-(4-((3-(3-fluoro-4-methoxyphenyl)imidazo[1,2-a]pyrazin-8-yl)amino)-2-methylbenzoyl)piperidine-4-carboxamide hydrochloride], the figure is 230 nM.
Consider `Cc1cc(Nc2nccn3c(-c4ccc(OC(F)F)cc4)cnc23)ccc1C(=O)N1CCN(C(=O)[C@@H]2C[C@](C)(O)CN2)CC1` [Example 462, [4-[[3-[4-(difluoromethoxy)phenyl]imi-dazo[1,2-a]pyrazin-8-yl]amino]-2-methylphenyl]-[4-[(2S,4S)-4-hydroxy-4-methylpyrrolidine-2-carbonyl]piperazin-1-yl]methanone; formic acid], for which the IC90 under setting [1] is 110 nM.
As for `CNCCNC(=O)[C@@H]1CCN(C(=O)c2ccc(Nc3nccn4c(-c5ccc(OC)c(F)c5)cnc34)cc2C)C[C@H]1O` (racemic) [Example 449, rac-(3R,4S)-1-[4-[[3-(3-fluoro-4-methoxyphenyl)imidazo[1,2-a]pyrazin-8-yl]amino]-2-methylbenozyl]-3-hydroxy-N-[2-(methylamino)ethyl]piperidin-4-carboxamide; 2,2,2-trifluoroacetic acid], under setting [2], the IC90 turned out to be 2200 nM.
Consider `COc1ccc(-c2cnc3c(Nc4ccc(C(=O)N5C[C@@H](O)[C@H](O)C5)c(C)c4)nccn23)cc1F` [Example 425, [(3R,4R)-3,4-dihydroxypyrrolidin-1-yl]-[4-[[3-(3-fluoro-4-methoxyphenyl)imidazo[1,2-a]pyrazin-8-yl]amino]-2-methylphenyl]methanone], for which, under setting [2], the IC90 turned out to be 1200 nM.
